Drawing on BindingDB's records for doi:10.1016/j.bmcl.2008.12.050 (Merck Research Laboratories, 2009), this text covers IC50 for 6 compounds.

The structures appear in SMILES notation. Where a name gives a salt, the structure may show the parent alone.

A short description of the test: Antagonist activity at human CCR2 receptor expressed in CHO cells by chemotaxis assay.

As to `CC(C)[C@]1(C(=O)NCc2cc(C(F)(F)F)cc(C(F)(F)F)c2)CC[C@@H](NC2COC2)C1` [(1S,3R)-N-(3,5-bis(trifluoromethyl)benzyl)-1-isopropyl-3-(oxetan-3-ylamino)cyclopentanecarboxamide trifluoroacetate], the IC50 worked out at 3.3 nM.

`CCC1COCCC1N[C@@H]1CC[C@@](C(=O)NCc2cc(C(F)(F)F)cc(C(F)(F)F)c2)(C(C)C)C1` (stereo partly drawn) [(1S,3R)-N-(3,5-bis(trifluoromethyl)benzyl)-3-(3-ethyltetrahydro-2H-pyran-4-ylamino)-1-isopropylcyclopentanecarboxamide] displayed an IC50 of 0.3 nM.

Compound `CCCC1COCCC1N[C@@H]1CC[C@@](C(=O)NCc2cc(C(F)(F)F)cc(C(F)(F)F)c2)(C(C)C)C1` (stereo partly drawn) [(1S,3R)-N-(3,5-bis(trifluoromethyl)benzyl)-1-isopropyl-3-(3-propyltetrahydro-2H-pyran-4-ylamino)cyclopentanecarboxamide] had an IC50 of 5.1 nM.

In the case of `CC(C)[C@]1(C(=O)NCc2cc(C(F)(F)F)cc(C(F)(F)F)c2)CC[C@@H](NC2CCOCC2C(F)(F)F)C1` (stereo partly drawn) [(1S,3R)-N-(3,5-bis(trifluoromethyl)benzyl)-1-isopropyl-3-(3-(trifluoromethyl)tetrahydro-2H-pyran-4-ylamino)cyclopentanecarboxamide], the IC50 stood at 1 nM.

`CC1COCCC1N[C@@H]1CC[C@@](C(=O)NCc2cc(C(F)(F)F)cc(C(F)(F)F)c2)(C(C)C)C1` (stereo partly drawn) [(1S,3R)-N-(3,5-bis(trifluoromethyl)benzyl)-1-isopropyl-3-(3-methyltetrahydro-2H-pyran-4-ylamino)cyclopentanecarboxamide] gave an IC50 of 0.1 nM.

In the case of `CC(C)[C@]1(C(=O)NCc2cc(C(F)(F)F)cc(C(F)(F)F)c2)CC[C@@H](NC2CCOCC2F)C1` (stereo partly drawn) [(1S,3R)-N-(3,5-bis(trifluoromethyl)benzyl)-3-(3-fluorotetrahydro-2H-pyran-4-ylamino)-1-isopropylcyclo pentanecarboxamide], the IC50 stood at 0.8 nM.

The IC50 is the midpoint of a concentration-inhibition curve.
